For the assay, the target named is T1, F508del (Homo sapiens, UniProt P13569, DEL508-508).
T1 construct: expressed in transfected cells
T1 sequence (P13569 with tags, fused parts or gaps DEL508-508): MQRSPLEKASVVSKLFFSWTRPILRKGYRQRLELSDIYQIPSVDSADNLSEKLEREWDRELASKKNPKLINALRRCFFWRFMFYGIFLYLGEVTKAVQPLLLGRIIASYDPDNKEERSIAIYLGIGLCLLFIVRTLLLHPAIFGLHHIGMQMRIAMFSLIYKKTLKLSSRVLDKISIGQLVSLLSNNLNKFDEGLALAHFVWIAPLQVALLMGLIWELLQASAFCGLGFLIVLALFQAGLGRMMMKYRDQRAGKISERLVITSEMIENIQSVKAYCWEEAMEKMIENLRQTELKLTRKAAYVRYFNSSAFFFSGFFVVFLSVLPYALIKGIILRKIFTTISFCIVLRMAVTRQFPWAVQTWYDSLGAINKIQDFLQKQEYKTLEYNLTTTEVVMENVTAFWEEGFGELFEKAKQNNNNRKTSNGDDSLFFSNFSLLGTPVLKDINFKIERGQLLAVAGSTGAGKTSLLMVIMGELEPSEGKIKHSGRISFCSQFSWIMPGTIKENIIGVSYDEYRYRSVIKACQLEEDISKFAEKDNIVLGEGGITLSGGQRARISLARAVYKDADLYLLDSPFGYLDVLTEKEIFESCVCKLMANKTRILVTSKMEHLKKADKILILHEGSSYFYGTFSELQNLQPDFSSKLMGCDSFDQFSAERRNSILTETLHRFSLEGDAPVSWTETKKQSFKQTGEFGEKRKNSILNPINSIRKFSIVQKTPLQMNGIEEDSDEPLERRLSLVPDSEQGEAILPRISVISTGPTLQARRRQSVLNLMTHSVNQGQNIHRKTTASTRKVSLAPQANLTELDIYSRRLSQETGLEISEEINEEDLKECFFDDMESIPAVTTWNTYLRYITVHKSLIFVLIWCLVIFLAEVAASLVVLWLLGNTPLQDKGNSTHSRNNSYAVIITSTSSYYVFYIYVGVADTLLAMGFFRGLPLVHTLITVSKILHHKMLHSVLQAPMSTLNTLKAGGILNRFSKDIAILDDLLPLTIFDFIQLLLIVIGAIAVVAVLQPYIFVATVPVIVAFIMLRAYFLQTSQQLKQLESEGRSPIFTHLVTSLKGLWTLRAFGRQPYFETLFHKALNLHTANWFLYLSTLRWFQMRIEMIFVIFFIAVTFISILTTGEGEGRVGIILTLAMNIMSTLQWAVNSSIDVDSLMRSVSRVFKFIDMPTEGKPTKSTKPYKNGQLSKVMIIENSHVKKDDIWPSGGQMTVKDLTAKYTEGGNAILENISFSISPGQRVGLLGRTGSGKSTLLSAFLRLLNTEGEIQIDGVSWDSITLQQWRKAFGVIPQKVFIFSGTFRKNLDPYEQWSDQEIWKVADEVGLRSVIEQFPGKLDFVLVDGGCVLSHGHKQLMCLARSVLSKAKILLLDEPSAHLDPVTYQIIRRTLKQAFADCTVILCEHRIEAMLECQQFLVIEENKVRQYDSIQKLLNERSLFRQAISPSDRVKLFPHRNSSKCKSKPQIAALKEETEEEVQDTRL
The assay is described as follows: Protocol 1: membrane potential optical assay (FLIPR III, voltage sensing dye), identification of potentiator compounds. The class given is cell-based. As to conditions: Table 3, compounds of Table 1. In short, it runs like this: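 Mouse NIH 3T3 fibroblasts stably expressing F508del, temperature-corrected at 27 °C for 24 h, pretreated with compound, then loaded with voltage-sensing redistribution dye. Forskolin was added in a single step with a chloride gradient (chloride-free gluconate bath; Bath Solution #1 HEPES pH 7.4). Membrane-potential fluorescence read on FLIPR III.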
On to `CC(C)Oc1ccc(-c2ccc(C(=O)NS(=O)(=O)c3cccc(N)n3)c(N3CC(C)(C)CC3(C)C)n2)cn1` [Compound 915, N-[(6-amino-2-pyridyl)sulfonyl]-6-(6-isopropoxy-3-pyridyl)-2-(2,2,4,4-tetramethylpyrrolidin-1-yl)pyridine-3-carboxamide], for which the EC30 result was “+++ (“+++” means <3 uM)”.

With `Cc1cccc(C)c1Cn1nc(C(C)(C)C)cc1C(=O)NS(=O)(=O)c1cccc2cc[nH]c12` [Compound 1358, 5-tert-butyl-2-[(2,6-dimethylphenyl)methyl]-N-(1H-indol-7-ylsulfonyl)pyrazole-3-carboxamide], the EC30 entry was “+++ (“+++” means <3 uM)”.

Regarding `COc1cccc(OC)c1-c1ccc(C(=O)NS(=O)(=O)c2cccc(N)n2)c(Oc2c(C)cc(C)cc2C)n1` [Compound 1326, N-[(6-amino-2-pyridyl)sulfonyl]-6-(2,6-dimethoxyphenyl)-2-(2,4,6-trimethylphenoxy)pyridine-3-carboxamide], the EC30 entry was “++ (“++” means between 3 uM and 10 uM)”.

For the molecule `Cc1cc(C)c(Oc2nc(-c3cc(F)cc(F)c3)ccc2C(=O)NS(=O)(=O)c2ccc[nH]c2=O)c(C)c1` [Compound 815, 6-(3,5-difluorophenyl)-N-[(2-oxo-1H-pyridin-3-yl)sulfonyl]-2-(2,4,6-trimethylphenoxy)pyridine-3-carboxamide], the EC30 entry is “++ (“++” means between 3 uM and 10 uM)”.

In the case of `CC(C)COc1cc(F)cc(-c2ccc(C(=O)NS(=O)(=O)c3cccc(N)n3)c(OCC3CC3)n2)c1` [Compound 1229, N-[(6-amino-2-pyridyl)sulfonyl]-2-(cyclopropylmethoxy)-6-(3-fluoro-5-isobutoxy-phenyl)pyridine-3-carboxamide], the EC30 result was “+++ (“+++” means <3 uM)”.

`Cc1cccc(C)c1Cn1c(C(=O)NS(=O)(=O)c2ccccc2)cc2cccnc21` [Compound 1291, N-(benzenesulfonyl)-1-[(2,6-dimethylphenyl)methyl]pyrrolo[2,3-b]pyridine-2-carboxamide]: the EC30 result is “++ (“++” means between 3 uM and 10 uM)”.

With `CC1CN(c2ncccc2C(=O)NS(=O)(=O)c2cccc(NC(C)c3ccccc3)n2)C(C)(C)C1` (stereo not drawn) [Compound 1905, N—[[6-(1-phenylethylamino)-2-pyridyl]sulfonyl]-2-(2,2,4-trimethylpyrrolidin-1-yl)pyridine-3-carboxamide], the EC30 entry is given as “+++ (“+++” means <3 uM)”.

Turning to `CC(C)COc1cc(F)cc(-c2ccc(C(=O)NS(=O)(=O)c3ccn[nH]3)c(N3CCCC34CCC4)n2)c1` [Compound 1282, 2-(8-azaspiro[3.4]octan-8-yl)-6-(3-fluoro-5-isobutoxy-phenyl)-N-(1H-pyrazol-5-ylsulfonyl)pyridine-3-carboxamide], the EC30 entry is recorded as “+++ (“+++” means <3 uM)”.

On to `COc1ccc(Oc2cccc(S(=O)(=O)NC(=O)c3cccnc3N3CC(C)CC3(C)C)n2)cc1OC` (stereo not drawn) [Compound 1761, N—[[6-(3,4-dimethoxyphenoxy)-2-pyridyl]sulfonyl]-2-(2,2,4-trimethylpyrrolidin-1-yl)pyridine-3-carboxamide], for which the EC30 result is “++ (“++” means between 3 uM and 10 uM)”.

Turning to `CCCOc1ccc(-c2ccc(C(=O)NS(=O)(=O)c3ccc[nH]c3=O)c(Oc3c(C)cc(C)cc3C)n2)cc1` [Compound 1202, N-[(2-oxo-1H-pyridin-3-yl)sulfonyl]-6-(4-propoxyphenyl)-2-(2,4,6-trimethylphenoxy)pyridine-3-carboxamide], the EC30 entry is given as “+++ (“+++” means <3 uM)”.

For `CC1CN(c2ncccc2C(=O)NS(=O)(=O)c2cccc(Oc3ccc4ccccc4n3)n2)C(C)(C)C1` (stereo not drawn) [Compound 1989, N—[[6-(2-quinolyloxy)-2-pyridyl]sulfonyl]-2-(2,2,4-trimethylpyrrolidin-1-yl)pyridine-3-carboxamide], the EC30 entry is on record as “+++ (“+++” means <3 uM)”.

As to `CC1CN(c2ncccc2C(=O)NS(=O)(=O)c2cccc(N3CCCC4CCCCC43)n2)C(C)(C)C1` (stereo not drawn) [Compound 1776, N—[[6-(3,4,4a,5,6,7,8,8a-octahydro-2H-quinolin-1-yl)-2-pyridyl]sulfonyl]-2-(2,2,4-trimethylpyrrolidin-1-yl)pyridine-3-carboxamide], the EC30 result was “+++ (“+++” means <3 uM)”.

For the molecule `CC(C)COc1cc(F)cc(-c2ccc(C(=O)NS(=O)(=O)c3cccc(N)n3)c(N3C[C@@H](C)C[C@H](C)C3)n2)c1` [Compound 1210, N-[(6-amino-2-pyridyl)sulfonyl]-2-[(3S,5S)-3,5-dimethyl-1-piperidyl]-6-(3-fluoro-5-isobutoxy-phenyl)pyridine-3-carboxamide], the EC30 result was “+++ (“+++” means <3 uM)”.

Turning to `CC(C)COc1cc(F)cc(-c2ccc(C(=O)NS(=O)(=O)c3ccn[nH]3)c(N3CCCC(C)C3C)n2)c1` (stereo not drawn) [Compound 1169, 2-(2,3-dimethyl-1-piperidyl)-6-(3-fluoro-5-isobutoxy-phenyl)-N-(1H-pyrazol-5-ylsulfonyl)pyridine-3-carboxamide], the EC30 result was “++ (“++” means between 3 uM and 10 uM)”.

For the molecule `CC(C)C(C)c1ccc(C(=O)NS(=O)(=O)c2cccnc2N)c(N2C[C@@H](C)CC2(C)C)n1` (stereo partly drawn) [Compound 1911, N-[(2-amino-3-pyridyl)sulfonyl]-6-(1,2-dimethylpropyl)-2-[(4S)-2,2,4-trimethylpyrrolidin-1-yl]pyridine-3-carboxamide], the EC30 result is given as “+++ (“+++” means <3 uM)”.

Turning to `Cc1cn(-c2ccc(C(=O)NS(=O)(=O)c3cccnc3N)c(N3C[C@@H](C)CC3(C)C)n2)nc1OCC(C)C` [Compound 1758, N-[(2-amino-3-pyridyl)sulfonyl]-6-(3-isobutoxy-4-methyl-pyrazol-1-yl)-2-[(4S)-2,2,4-trimethylpyrrolidin-1-yl]pyridine-3-carboxamide], the EC30 entry is reported as “+++ (“+++” means <3 uM)”.

As for `CCN(CC)c1ccc(-c2ccc(C(=O)NS(=O)(=O)c3cccc(N)n3)c(N3CC(C)CC3(C)C)n2)cn1` (stereo not drawn) [Compound 796, N-[(6-amino-2-pyridyl)sulfonyl]-6-[6-(diethylamino)-3-pyridyl]-2-(2,2,4-trimethylpyrrolidin-1-yl)pyridine-3-carboxamide], the EC30 entry is listed as “+++ (“+++” means <3 uM)”.

Regarding `CCOc1cccc2c1CN(Cc1c(C)cc(C)cc1C)[C@]2(C)C(=O)NS(=O)(=O)c1ccc[nH]c1=O` [Compound 1541, (1S)-4-ethoxy-1-methyl-N-[(2-oxo-1H-pyridin-3-yl)sulfonyl]-2-[(2,4,6-trimethylphenyl)methyl]isoindoline-1-carboxamide], the EC30 result was “+++ (“+++” means <3 uM)”.

With `COc1ncccc1S(=O)(=O)NC(=O)C1Cc2ccccc2CCN1Cc1c(C)cc(C)cc1C` (stereo not drawn) [Compound 876, N-[(2-methoxy-3-pyridyl)sulfonyl]-3-[(2,4,6-trimethylphenyl)methyl]-1,2,4,5-tetrahydro-3-benzazepine-4-carboxamide], the EC30 entry is “+++ (“+++” means <3 uM)”.

With `Cc1cc(C)c(Oc2nc(C3CCC(C)(C)CC3)ccc2C(=O)NS(=O)(=O)c2ccc[nH]c2=O)c(C)c1` [Compound 1091, 6-(4,4-dimethylcyclohexyl)-N-[(2-oxo-1H-pyridin-3-yl)sulfonyl]-2-(2,4,6-trimethylphenoxy)pyridine-3-carboxamide], the EC30 entry is listed as “+++ (“+++” means <3 uM)”.

For the molecule `C[C@@H]1CN(c2nc(C(F)(F)F)ccc2C(=O)NS(=O)(=O)c2cccc(N)n2)C(C)(C)C1` [Compound 1556, N-[(6-amino-2-pyridyl)sulfonyl]-6-(trifluoromethyl)-2-[(4S)-2,2,4-trimethylpyrrolidin-1-yl]pyridine-3-carboxamide], the EC30 entry is “+++ (“+++” means <3 uM)”.

On to `CC(C)COc1cc(F)cc(-c2ccc(C(=O)NS(=O)(=O)c3cccc(N)n3)c(N3CC(C(F)(F)F)CCC3C)n2)c1` (stereo not drawn) [Compound 1835, N-[(6-amino-2-pyridyl)sulfonyl]-6-(3-fluoro-5-isobutoxy-phenyl)-2-[2-methyl-5-(trifluoromethyl)-1-piperidyl]pyridine-3-carboxamide], for which the EC30 result was “+++ (“+++” means <3 uM)”.

Regarding `CC(C)=C(C)c1ccc(C(=O)NS(=O)(=O)c2cccc(N)n2)c(N2C[C@@H](C)CC2(C)C)n1` [Compound 1510, N-[(6-amino-2-pyridyl)sulfonyl]-6-(1,2-dimethylprop-1-enyl)-2-[(4S)-2,2,4-trimethylpyrrolidin-1-yl]pyridine-3-carboxamide], the EC30 result is “+++ (“+++” means <3 uM)”.

`Cc1cc(C)c(Oc2nc(C3CC(=O)CC(C)(C)C3)ccc2C(=O)NS(=O)(=O)c2cccc(N)n2)c(C)c1` (stereo not drawn) [Compound 1492, N-[(6-amino-2-pyridyl)sulfonyl]-6-(3,3-dimethyl-5-oxo-cyclohexyl)-2-(2,4,6-trimethylphenoxy)pyridine-3-carboxamide]: the EC30 entry is “++ (“++” means between 3 uM and 10 uM)”.

On to `C[C@@H]1CN(c2nc(C3=CCCCO3)ccc2C(=O)NS(=O)(=O)c2cccnc2N)C(C)(C)C1` [Compound 1699, N-[(2-amino-3-pyridyl)sulfonyl]-6-(3,4-dihydro-2H-pyran-6-yl)-2-[(4S)-2,2,4-trimethylpyrrolidin-1-yl]pyridine-3-carboxamide], for which the EC30 entry is “+++ (“+++” means <3 uM)”.

`CC(C)[C@H](C)Nc1ccc(-c2ccc(C(=O)NS(=O)(=O)c3cccc(N)n3)c(N3[C@H](C)CC[C@@H]3C)n2)cn1` [Compound 1399, N-[(6-amino-2-pyridyl)sulfonyl]-6-[6-[[(1 S)-1,2-dimethylpropyl]amino]-3-pyridyl]-2-[(2S,5R)-2,5-dimethylpyrrolidin-1-yl]pyridine-3-carboxamide]: the EC30 result is “+++ (“+++” means <3 uM)”.

For `CCCN(CC1CC1)c1nc(-c2cc(F)cc(OCC(C)C)c2)ccc1C(=O)NS(=O)(=O)c1cccc(N)n1` [Compound 881, N-[(6-amino-2-pyridyl)sulfonyl]-2-[cyclopropylmethyl(propyl)amino]-6-(3-fluoro-5-isobutoxy-phenyl)pyridine-3-carboxamide], the EC30 result is recorded as “+++ (“+++” means <3 uM)”.

The values above are taken from patent US10758534B2 (Vertex Pharmaceuticals Incorporated, priority 2014, dated 2020).
